Test results: patent US8143243B2, “Compounds for the treatment of hepatitis C” (Bristol-Myers Squibb Company, priority 2007, dated 2012)
pEC50, pIC50: −log10 of the molar value. Read-outs that look alike come from different tables or passages of the source.

Assays:
[1] = test system: HCV replicon cells; assay: HCV replicon FRET / luciferase assay; assay type: cell-based; settings: Hepatitis C virus
From the text: FRET Assay Preparation. To perform the HCV FRET screening assay, 96-well cell culture plates were used. The FRET peptide (Anaspec, Inc.) (Taliani et al., Anal. Biochem. 1996, 240, 60-67) contains a fluorescence donor, EDANS, near one end of the peptide and an acceptor, DABCYL, near the other end. The fluorescence of the peptide is quenched by […] resonance energy transfer (RET) between the donor and the acceptor, but as the NS3 protease cleaves the peptide the products are released from RET quenching and the fluorescence of the donor becomes apparent. The assay reagent was made as follows: 5× cell Luciferase cell culture lysis reagent from Promega (#E153A) diluted to 1× with dH2O, NaCl added to 150 mM final, the FRET peptide diluted to 20 μM final from a 2 mM stock.
To prepare plates, HCV replicon cells, with or without a Renilla luciferase reporter gene, were trypsinized and placed into each well of a 96-well plate with titrated test compounds added in columns 3 through 12; columns 1 and 2 contained a control compound (HCV protease inhibitor), and the bottom row contained cells without compound. The plates were then placed in a CO2 incubator at 37° C.
Assays. Subsequent to addition of the test compounds described above (FRET Assay Preparation), at various times the plate was removed and Alamar blue solution (Trek Diagnostics, #00-100) was added per well as a measure of cellular toxicity. After reading in a Cytoflour 4000 instrument (PE Biosystems), plates were rinsed with PBS and then used for FRET assay by the addition of 30 ul of the FRET peptide assay reagent described above (FRET Assay Preparation) per well. The plate was then placed into the Cytoflour 4000 instrument which had been set to 340 excite/490 emission, automatic mode for 20 cycles and the plate read in a kinetic mode. Typically, the signal to noise using an endpoint analysis after the reads was at least three-fold. Alternatively, after Alamar blue reading, plates were rinsed with PBS, 50 ul of DMEM (high glucose) without phenol red was added and plates were then used for luciferase assay using the Promega Dual-Glo Luciferase Assay System.
Compound analysis was determined by quantification of the relative HCV replicon inhibition and the relative cytotoxicity values. To calculate cytoxicity values, the average Alamar Blue fluorescence signals from the control wells were set as 100% non-toxic. The individual signals in each of the compound test wells were then divided by the average control signal and multiplied by 100% to determine […]. To calculate the HCV replicon inhibition values, an average background value was obtained from the two wells containing the highest amount of HCV protease inhibitor at the end of the assay period. These numbers were similar to those obtained from naïve Huh-7 cells.
The background numbers were then subtracted from the average signal obtained from the control wells and this number was used as 100% activity. The individual signals in each of the compound test wells were then divided by the averaged control values after background subtraction and multiplied by 100% to determine percent activity. EC50 values for a protease inhibitor titration were calculated as the concentration which caused a 50% reduction in FRET or luciferase activity. The two numbers generated for the compound plate, percent cytoxicity and percent activity were used to determine compounds of interest for further analysis.

[2] = target: T1, HCV NS5B (Hepatitis C virus genotype 1b, UniProt Q9WMX2); assay: HCV NS5B RdRp enzyme assay (standard / modified); assay type: biochemical
T1 construct: The protein was expressed with an 18 amino acid C-terminal truncation to enhance the solubility; made in house; host or cells: E. coli BL21 (DE3)
Description: HCV NS5B RdRp cloning, expression, and purification. The cDNA encoding the NS5B protein of HCV, genotype 1b, was cloned into the pET21a expression vector. The protein was expressed with an 18 amino acid C-terminal truncation to enhance the solubility. The E. coli competent cell line BL21 (DE3) was used for expression of the protein. Cultures were grown at 37° C. for ˜4 hours until the cultures reached an optical density of 2.0 at 600 nm. The cultures were cooled to 20° C. and induced with 1 mM IPTG. Fresh ampicillin was added to a final concentration of 50 μg/ml and the cells were grown overnight at 20° C.
Cell pellets (3 L) were lysed for purification to yield 15-24 mgs of purified NS5B. The lysis buffer consisted of 20 mM Tris-HCl, pH 7.4, 500 mM NaCl, 0.5% triton X-100, 1 mM DTT, 1 mM EDTA, 20% glycerol, 0.5 mg/ml lysozyme, 10 mM MgCl2, 15 ug/ml deoxyribonuclease I, and Complete TM protease inhibitor tablets (Roche). After addition of the lysis buffer, frozen cell pellets were resuspended using a tissue homogenizer. To reduce the viscosity of the sample, aliquots of the lysate were sonicated on ice using a microtip attached to a Branson sonicator. The sonicated lysate was centrifuged at 100,000×g for 1 hr at 4° C. and filtered through a 0.2 μm filter unit (Corning).
The protein was purified using three sequential chromatography steps: Heparin sepharose CL-6B, polyU sepharose 4B, and Hitrap SP sepharose (Pharmacia). The chromatography buffers were identical to the lysis buffer but contained no lysozyme, deoxyribonuclease I, MgCl2 or protease inhibitor and the NaCl concentration of the buffer was adjusted according to the requirements for charging the protein onto the column. Each column was eluted with a NaCl gradient which varied in length from 5-50 column volumes depending on the column type. After the final chromatography step, the resulting purity of the enzyme is >90% based on SDS-PAGE analysis. The enzyme was aliquoted and stored at −80° C.
Standard HCV NS5B RdRp enzyme assay. HCV RdRp genotype 1b assays were run in a final volume of 60 μl in 96 well plates (Costar 3912). The assay buffer is composed of 20 mM Hepes, pH 7.5, 2.5 mM KCl, 2.5 mM MgCl2, 1 mM DTT, 1.6 U RNAse inhibitor (Promega N2515), 0.1 mg/ml BSA (Promega R3961), and 2% glycerol. All compounds were serially diluted (3-fold) in DMSO and diluted further in water such that the final concentration of DMSO in the assay was 2%. HCV RdRp genotype 1b enzyme was used at a final concentration of 28 nM. A polyA template was used at 6 nM, and a biotinylated oligo-dT12 primer was used at 180 nM final concentration. Template was obtained commercially (Amersham 27-4110). Biotinylated primer was prepared by Sigma Genosys. 3H-UTP was used at 0.6 μCi (0.29 μM total UTP). Reactions were initiated by the addition of enzyme, incubated at 30° C. for 60 min, and stopped by adding 25 μl of 50 mM EDTA containing SPA beads (4 μg/μl, Amersham RPNQ 0007). Plates were read on a Packard Top Count NXT after >1 hr incubation at room temperature.
Modified HCV NS5B RdRp enzyme assay. A modified enzyme assay was performed essentially as described for the standard enzyme assay except for the following: The biotinylated oligo dT12 primer was precaptured on streptavidin-coated SPA beads by mixing primer and beads in assay buffer and incubating at room temperature for one hour. Unbound primer was removed after centrifugation. The primer-bound beads were resuspended in 20 mM Hepes buffer, pH 7.5 and used in the assay at final concentrations of 20 nM primer and 0.67 μg/μl beads. Order of addition in the assay: enzyme (14 nM) was added to diluted compound followed by the addition of a mixture of template (0.2 nM), 3H-UTP (0.6 μCi, 0.29 μM), and primer-bound beads, to initiate the reaction; concentrations given are final. Reactions were allowed to proceed for 4 hours at 30° C.
IC50 values for compounds were determined using seven different [I]. […]

[3] = HCV replicon cells, FRET or luciferase readout, read-out: EC50
[4] = HCV RdRp genotype 1b enzyme, read-out: IC50

T1 sequence (Q9WMX2 2420-2992): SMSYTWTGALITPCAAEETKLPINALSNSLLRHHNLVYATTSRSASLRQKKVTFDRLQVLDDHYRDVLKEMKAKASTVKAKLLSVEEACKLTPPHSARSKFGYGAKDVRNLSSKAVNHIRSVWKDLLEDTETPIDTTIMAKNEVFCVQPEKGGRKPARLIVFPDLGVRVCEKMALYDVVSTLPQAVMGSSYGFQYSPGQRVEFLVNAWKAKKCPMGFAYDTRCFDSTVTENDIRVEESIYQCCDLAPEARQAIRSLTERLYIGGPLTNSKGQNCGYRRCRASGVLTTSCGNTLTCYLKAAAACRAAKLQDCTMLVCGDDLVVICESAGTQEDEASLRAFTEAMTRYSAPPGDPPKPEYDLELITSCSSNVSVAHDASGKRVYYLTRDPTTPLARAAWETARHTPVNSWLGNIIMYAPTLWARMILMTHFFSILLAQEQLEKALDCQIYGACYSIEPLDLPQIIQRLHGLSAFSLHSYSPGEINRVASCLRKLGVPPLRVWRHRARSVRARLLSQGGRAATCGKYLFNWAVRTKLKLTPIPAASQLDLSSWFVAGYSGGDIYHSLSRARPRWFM

SMILES | pEC50 [1, 3] | pIC50 [2, 4] | pEC50 [1] | pIC50 [2]
COC[C@@H]1CN(C(=O)c2cnn(C)c2C2=Cc3cc(OC)ccc3-c3c(C4CCCCC4)c4ccc(C(=O)NS(=O)(=O)C5CCCC5)cc4n3C2)CCO1 | 6.30 to 9.00 | 6.30 to 9.00 | – | –
COC[C@@H]1CN(C(=O)c2cnn(C(C)C)c2C2=Cc3cc(OC)ccc3-c3c(C4CCCCC4)c4ccc(C(=O)NS(=O)(=O)CC(C)C)cc4n3C2)CCO1 | 6.30 to 9.00 | 6.30 to 9.00 | – | –
COc1ccc2c(c1)C=C(c1ocnc1C(=O)N1CCOCC1)Cn1c-2c(C2CCCCC2)c2ccc(C(=O)NS(=O)(=O)N3CCOCC3)cc21 | 6.30 to 9.00 | 6.30 to 9.00 | – | –
COc1ccc2c(c1)C=C(c1c(C(=O)N3C[C@@H](C)O[C@@H](C)C3)c(C)nn1C(C)C)Cn1c-2c(C2CCCCC2)c2ccc(C(=O)NS(=O)(=O)C(C)C)cc21 | 6.30 to 9.00 | 6.30 to 9.00 | – | –
CCn1ncc(C(=O)N2C3CCCC2COC3)c1C1=Cc2cc(OC)ccc2-c2c(C3CCCCC3)c3ccc(C(=O)NS(=O)(=O)C(C)C)cc3n2C1 | – | – | 6.30 to 9.00 | 6.30 to 9.00
COc1ccc2c(c1)C=C(c1c(C(=O)O)c(C)nn1C)Cn1c-2c(C2CCCCC2)c2ccc(C(=O)NS(=O)(=O)C(C)C)cc21 | < 6.30 | 6.30 to 9.00 | – | –
CCn1nc(C)c(C(=O)N2C[C@@H](C)O[C@@H](C)C2)c1C1=Cc2cc(OC)ccc2-c2c(C3CCCCC3)c3ccc(C(=O)NS(=O)(=O)C(C)C)cc3n2C1 [drawing 580] | 6.30 to 9.00 | 6.30 to 9.00 | – | –
CCN1C[C@@H]2C[C@H]1CN2C(=O)c1c(C(F)(F)F)nn(C)c1C1=Cc2cc(OC)ccc2-c2c(C3CCCCC3)c3ccc(C(=O)NS(=O)(=O)C(C)C)cc3n2C1 | 6.30 to 9.00 | 6.30 to 9.00 | – | –
COc1ccc2c(c1)C=C(c1c(C(=O)N3CCOCC3)cnn1C1CC1)Cn1c-2c(C2CCCCC2)c2ccc(C(=O)NS(=O)(=O)C(C)C)cc21 | 6.30 to 9.00 | 6.30 to 9.00 | – | –
COc1ccc2c(c1)C=C(c1c(C(=O)N3C4COCC3COC4)cnn1C(C)C)Cn1c-2c(C2CCCCC2)c2ccc(C(=O)NS(=O)(=O)C(C)C)cc21 | – | – | 6.30 to 9.00 | 6.30 to 9.00
CCn1ncc(C(=O)N2CCN(C)CC2)c1C1=Cc2cc(OC)ccc2-c2c(C3CCCCC3)c3ccc(C(=O)NS(=O)(=O)N(C)C)cc3n2C1 | 6.30 to 9.00 | 6.30 to 9.00 | – | –
COC[C@@H]1CN(C(=O)c2cnn(C)c2C2=Cc3cc(OC)ccc3-c3c(C4CCCCC4)c4ccc(C(=O)NS(=O)(=O)C5CCC5)cc4n3C2)CCO1 | 6.30 to 9.00 | 6.30 to 9.00 | – | –
COC[C@@H]1CN(C(=O)c2c(C(F)(F)F)nn(C)c2C2=Cc3cc(OC)ccc3-c3c(C4CCCCC4)c4ccc(C(=O)NS(=O)(=O)C(C)C)cc4n3C2)CCO1 | 6.30 to 9.00 | 6.30 to 9.00 | – | –
COc1ccc2c(c1)C=C(c1c(C(=O)N3CCOCC3)cnn1C)Cn1c-2c(C2CCCCC2)c2ccc(C(=O)O)cc21 | 6.30 to 9.00 | 6.30 to 9.00 | – | –
COc1ccc2c(c1)C=C(c1c(C(=O)N3C[C@@H](C)N(C)[C@@H](C)C3)c(C)nn1C(C)C)Cn1c-2c(C2CCCCC2)c2ccc(C(=O)NS(=O)(=O)C(C)C)cc21 | 6.30 to 9.00 | 6.30 to 9.00 | – | –
COC[C@@H]1CN(C(=O)c2cnn(C(C)C)c2C2=Cc3cc(OC)ccc3-c3c(C4CCCCC4)c4ccc(C(=O)NS(=O)(=O)C(C)C)cc4n3C2)CCO1 | 6.30 to 9.00 | 6.30 to 9.00 | – | –
COc1ccc2c(c1)C=C(c1c(C(=O)N3C4CCC3CN(C)C4)c(C(F)(F)F)nn1C)Cn1c-2c(C2CCCCC2)c2ccc(C(=O)NS(=O)(=O)C(C)C)cc21 | – | – | 6.30 to 9.00 | 6.30 to 9.00
COc1ccc2c(c1)C=C(c1ocnc1C(=O)N1CCOCC1)Cn1c-2c(C2CCCCC2)c2ccc(C(=O)OC(C)(C)C)cc21 | < 7.40 | < 7.40 | – | –
COc1ccc2c(c1)C=C(c1c(C(=O)N(CC3CCCO3)C(C)C)cnn1C)Cn1c-2c(C2CCCCC2)c2ccc(C(=O)NS(=O)(=O)C(C)C)cc21 (stereo not shown) | 6.30 to 9.00 | 6.30 to 9.00 | – | –
COc1ccc2c(c1)C=C(c1c(C(=O)N3CCOCC3)cnn1C)Cn1c-2c(C2CCCCC2)c2ccc(C(=O)NS(=O)(=O)C(C)C)cc21 | 6.30 to 9.00 | 6.30 to 9.00 | – | –
